Patent publication US8314092B2, “Substituted [(5H-pyrrolo[2,1-c][1,4]benzodiazepin-11-yl)piperazin-1-yl]-2,2-dimethylpropanoic acid compounds as dual activity H1 inverse agonists/5-HT2A antagonists” (Eli Lilly and Company, priority 2011, dated 2012)
Where a name gives a salt, the structure may show the parent alone.

Tests used:
[1] = biological target: 5-HT6 (Homo sapiens, UniProt P50406); assay: 5-HT6 binding
Description: (§1) Further, the compounds of the invention may be tested in binding assays and functional activity assays by well known methods for other physiologically important receptors such as, but not limited to, the hERG channel, other serotonin receptors (specifically 5-HT1A, 5-HT1B, 5-HT1D, 5-HT1E, 5-HT1F receptors, lack of agonist activity at 5-HT2B receptors, 5-HT2C, 5-HT4, 5-HTS, 5-HT6, and 5-HT7 receptors), muscarinic receptors, dopaminergic receptors (specifically D1, D2, and D3), GABAA receptors, adrenergic receptors and monoamine transporters. Certain exemplified compounds are tested at these receptors and are shown to lack significant activity.

[2] = biological target: T1, 5-HT2A receptor (Mus musculus, UniProt P35363); assay: Inhibition of DOI induced headshake activity; format: in vivo; conditions: mice, 10 mg/kg PO, 60 minutes pre-treatment, DOI 3 mg/kg
T1 construct: male C57BL/6J mice (20-25 g, Charles River); from tissue; host or cells: living C57BL/6J mouse (whole animal, behavioural read-out)
T1 sequence (P35363 whole entry): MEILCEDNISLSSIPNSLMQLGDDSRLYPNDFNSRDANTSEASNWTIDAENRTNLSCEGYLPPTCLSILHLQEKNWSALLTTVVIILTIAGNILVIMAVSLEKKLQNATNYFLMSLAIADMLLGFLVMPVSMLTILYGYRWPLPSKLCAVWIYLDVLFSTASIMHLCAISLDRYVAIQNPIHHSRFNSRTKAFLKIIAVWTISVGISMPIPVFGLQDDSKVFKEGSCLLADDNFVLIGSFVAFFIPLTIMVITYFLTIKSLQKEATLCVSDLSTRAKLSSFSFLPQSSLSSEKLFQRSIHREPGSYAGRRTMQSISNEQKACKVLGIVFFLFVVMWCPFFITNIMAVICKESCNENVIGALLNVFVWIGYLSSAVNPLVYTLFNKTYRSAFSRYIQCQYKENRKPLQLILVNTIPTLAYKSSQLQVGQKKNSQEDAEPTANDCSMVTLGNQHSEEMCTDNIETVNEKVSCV
Method: (see for example Bartoszyk G D, van Amsterdam C, Böttcher H, Seyfried C A. EMD 281014, a new selective serotonin 5-HT2A receptor antagonist. Eur J Pharmacol. 2003 473: 229-230.) Briefly, male C57BL/6J mice (20-25 g, Charles River) are housed in standard housing conditions (32 mice in a large IVC cage, 07.00 to 19.00 light phase, constant temperature (19-23° C.) and humidity (50%+/−10), ad lib food and water). Mice received either vehicle (0.25% Methyl cellulose), DOI (3 mg/kg in saline) or test compound at 10 mg/kg PO plus DOI (3 mg/kg in saline). Test compounds are individually evaluated in groups of four per experiment with n=4 for each compound, together with vehicle and DOI+vehicle (n=8). After a test compound pre-treatment time of 60 minutes the mice receive either vehicle (saline) or 3 mg/kg DOI dosed subcutaneously, and are then placed into clear perspex observation chambers. […] The data is analyzed using an ANOVA and post-hoc Dunnet's Test. Exemplified compounds are tested essentially as described and are found to inhibit the DOI induced headshake response at greater than 90% at 10 mg/kg. The compound of example 13 is tested essentially as described and is found to inhibit the DOI induced headshake response at 100% at 10 mg/kg.

[3] = biological target: Dopamine D2 (Homo sapiens, UniProt P14416); assay: Dopamine D2 binding
Dopamine D2, sequence (P14416 whole entry): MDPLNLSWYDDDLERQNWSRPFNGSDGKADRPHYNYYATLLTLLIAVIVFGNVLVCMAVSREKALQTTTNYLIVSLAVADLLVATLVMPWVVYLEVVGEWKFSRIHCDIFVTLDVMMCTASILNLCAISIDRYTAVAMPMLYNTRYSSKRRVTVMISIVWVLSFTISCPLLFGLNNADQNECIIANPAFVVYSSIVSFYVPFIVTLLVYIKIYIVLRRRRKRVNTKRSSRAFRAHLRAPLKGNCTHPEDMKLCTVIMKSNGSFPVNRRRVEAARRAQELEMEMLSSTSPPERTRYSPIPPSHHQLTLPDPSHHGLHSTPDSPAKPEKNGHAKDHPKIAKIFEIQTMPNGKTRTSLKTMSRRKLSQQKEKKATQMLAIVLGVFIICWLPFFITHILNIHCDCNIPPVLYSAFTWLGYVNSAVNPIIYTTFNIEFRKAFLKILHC
Description: as §1

5-HT6, sequence (P50406 whole entry, species assumed): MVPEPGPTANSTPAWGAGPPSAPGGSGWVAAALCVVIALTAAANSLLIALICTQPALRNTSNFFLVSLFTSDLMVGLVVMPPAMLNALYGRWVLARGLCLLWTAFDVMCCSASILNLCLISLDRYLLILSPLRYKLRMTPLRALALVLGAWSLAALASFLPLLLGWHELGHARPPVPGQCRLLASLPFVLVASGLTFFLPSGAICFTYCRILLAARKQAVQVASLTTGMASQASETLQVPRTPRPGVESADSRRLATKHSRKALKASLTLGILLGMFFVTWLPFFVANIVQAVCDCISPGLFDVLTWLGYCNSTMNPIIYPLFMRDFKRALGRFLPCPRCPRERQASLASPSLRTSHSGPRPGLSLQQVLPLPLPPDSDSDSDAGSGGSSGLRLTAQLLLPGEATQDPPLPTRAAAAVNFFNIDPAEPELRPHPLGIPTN

Cc1cc2n(c1)Cc1cc(Cl)ccc1N=C2N1CCN(CC(C)(C)C(=O)O)CC1 [Example 13, 3-[4-(7-Chloro-2-methyl-5H-pyrrolo[2,1-c][1,4]benzodiazepin-11-yl)piperazin-1-yl]-2,2-dimethylpropanoic acid dihydrochloride]
Ki [1]: > 5.83 µM | inhibition of DOI induced headshake response [2]: 100% | Ki [3]: 3.42 µM
